This note sets out measurements from article PMC6332334, “3-H-[1,2]Dithiole as a New Anti-Trypanosoma cruzi Chemotype: Biological and Mechanism of Action Studies” (Molecules, 2015).

The test system of test [1] is J774.1 murine macrophages. The test is described as follows: Unspecific in vitro cytotoxicity of mammalian cells (MTT). Type of test: cell-based. Particulars: Mus musculus, 48 h exposure, read-out: IC50 against Macrophages. How it is done:
To evaluate the anti-trypanosomal activity of the synthesized 3H-[1,2]dithioles we used T. cruzi, Tulahuen 2 strain (discrete typing unit, DTU, TcVI [18]) in the epimastigote form. […] To establish the selectivity of the compounds against the parasite, unspecific cytotoxicity against mammalian cells (J774.1 murine macrophages) was studied for the most relevant derivatives. The selectivity indexes (SI) were also determined (Table 1).
J774.1 murine macrophage cells (ATCC, Manassas, VA, USA) were grown in DMEM culture milieu containing 4 mM L-glutamine and supplemented with 10% heat-inactivated fetal calf serum. […] Afterwards, cells were exposed for 48 h to the compounds (25–400 μM) or vehicle for control (0.4% DMSO), and additional controls (cells in medium) were used in each test. Cell viability was then assessed by measuring the mitochondria-dependent reduction of MTT (3-(4,5-dimethylthiazol-2-yl)-2,5-diphenyltetrazolium bromide) to formazan. For this purpose, MTT in sterile PBS (0.2% glucose) pH 7.4 was added to the macrophages to achieve a final concentration of 0.1 mg/mL and the cells were incubated at 37 °C for 3 h. After removing the medium, formazan crystals were dissolved in 180 μL of DMSO and 20 μL of MTT buffer (0.1 M glycine, 0.1 M NaCl, 0.5 mM EDTA, pH 10.5) and the absorbance at 560 nm was measured. The IC50 was defined as the drug concentration at which 50% of the cells were viable, relative to the control (no drug added), and was determined by analysis using OriginLab8.5® sigmoidal regression (% of viable cells vs. logarithm of the compound concentration). Samples were performed in triplicate.

For a further test, the target named is T1, cruzipain (Trypanosoma cruzi, UniProt P25779).
T1 construct: endogenous in cells; host or cells: T. cruzi epimastigotes, Tulahuen 2 strain
The test is described as follows: Inhibition of T. cruzi cruzipain (Z-Phe-Arg-AMC fluorogenic substrate). It counts as biochemical. Particulars: percentage of enzymatic inhibition at 100 μM; read-out: Cruzipain % Inhib100. As to the method: Initially, we tested the dithioles as inhibitors of the protease cruzipain from T. cruzi at a concentration of 100 μM.
Cruzipain was purified to homogeneity from epimastigotes of the Tulahuen 2 strain by ConA-Sepharose affinity chromatography, as previously described. Cruzipain (2.5 μM ε = 58,285 M^−1·cm^−1) was incubated in 50 mM acetate buffer pH 5.5 with 50 mM DTT and 100 μM inhibitor was added, shaking the solution for 15 min at 27 °C. The derivatives were added diluted in DMSO, and the controls contained the same solvent concentration. The concentration of DMSO never exceeded 1% in the reaction medium. E-64 was used as a positive control of inhibition. Then, the fluorogenic substrate Z-Phe-Arg-AMC (100 μM) was added and the fluorescence was measured during 10 min at intervals of 3 s (excitation at 350 nm and emission at 460 nm) using a Varioskan Flash Spectrophotometer. From the slope of the negative control, we calculated the total (100%) enzyme activity, while the slopes obtained in the presence of the compounds yielded the percentage of remaining enzyme activity. The percentage of enzyme inhibition was determined as […]. The experiments were done in duplicate.

Test [2] has as its target T2, Trypanosoma cruzi triosephosphate isomerase (TcTIM) (Trypanosoma cruzi, UniProt P52270).
T2 construct: made in house; host or cells: Escherichia coli
The test is described as follows: Inhibition of enzymatic activity of TcTIM. Type of test: biochemical. As to the method:
In order to investigate if the 3H-[1,2]dithioles inhibit TcTIM, we initially tested the inhibitory capacity of the compounds at a concentration of 200 μM and then at 25 μM.
Expression and purification of protein: TcTIM was expressed in Escherichia coli and purified as described in the literature. After purification, the enzyme, dissolved in 100 mM triethanolamine, 10 mM EDTA and 1 mM dithiothreitol (pH 8), was precipitated with ammonium sulfate (75% saturation) and stored at 4 °C. Before use, extensive dialysis against 100 mM triethanolamine/10 mM EDTA (pH 7.4) was performed. Protein concentration was determined by absorbance at 280 nm (ε = 36,440 M^−1·cm^−1).
Enzymatic activity assays. Enzymatic activity was determined following the conversion of glyceraldehyde 3-phosphate into dihydroxyacetone phosphate. The decrease in absorbance at 340 nm was followed in a multicell Cary spectrophotometer at 25 °C. The reaction mixture (1 mL, pH 7.4) contained 100 mM triethanolamine, 10 mM EDTA, 0.2 mM NADH, 1 mM glyceraldehyde 3-phosphate, and 0.9 units of α-glycerol phosphate dehydrogenase. The reaction was initiated by addition of 5 ng/mL of the TcTIM.
For inactivation studies, TcTIM was incubated at a concentration of 5 mg/mL in a buffer containing 100 mM triethanolamine, 10 mM EDTA, pH 7.4 and 10% of DMSO at 36 °C. The mixture also contained the compounds at the indicated concentrations. Compounds were dissolved in DMSO. After 2 h, […] was withdrawn and added to 1 mL of reaction mixture for the activity assay. None of the molecules tested here affected the activity of α-glycerol phosphate dehydrogenase, the enzyme used for trapping the product.
The IC50 value was taken as the concentration of drug needed to reduce the enzymatic activity to 50%. The experiments were performed in triplicate.

T2 sequence (P52270 whole entry): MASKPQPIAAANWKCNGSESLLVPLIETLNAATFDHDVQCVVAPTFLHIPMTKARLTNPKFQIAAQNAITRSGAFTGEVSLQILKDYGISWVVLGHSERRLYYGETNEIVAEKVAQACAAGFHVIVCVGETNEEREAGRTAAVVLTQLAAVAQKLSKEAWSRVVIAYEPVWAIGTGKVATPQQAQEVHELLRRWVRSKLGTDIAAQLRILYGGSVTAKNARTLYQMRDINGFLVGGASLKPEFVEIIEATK
T1 sequence (P25779 123-467): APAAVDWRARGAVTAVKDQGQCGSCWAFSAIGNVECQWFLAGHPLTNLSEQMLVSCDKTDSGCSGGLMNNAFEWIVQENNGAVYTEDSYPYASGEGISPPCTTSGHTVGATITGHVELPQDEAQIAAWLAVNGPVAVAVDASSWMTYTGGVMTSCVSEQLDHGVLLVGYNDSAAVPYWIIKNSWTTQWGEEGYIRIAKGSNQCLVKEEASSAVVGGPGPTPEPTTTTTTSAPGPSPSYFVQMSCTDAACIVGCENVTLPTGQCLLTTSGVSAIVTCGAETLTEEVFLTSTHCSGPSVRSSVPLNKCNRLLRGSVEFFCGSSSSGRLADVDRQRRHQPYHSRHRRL

On to `CC(=O)COc1ccc(C2=C/C(=C(\SCC(C)=O)C(C)=O)SS2)cc1` [Derivative 2], for which, in test [1], the IC50 (in general, the concentration needed to halve the response being measured) came out at 24 ± 1 µM. Moreover, the inhibition at 100 µM at cruzipain is 91.3 ± 2.8%. Moreover, in test [2] (percentage of enzymatic inhibition at 25 μM, read-out: TcTIM % Inhib25), the inhibition at 25 µM came to 48 ± 4%. In test [2] (percentage of enzymatic inhibition at 200 μM, read-out: TcTIM % Inhib200), the inhibition at 200 µM is 72%.
